Key:
[1] = system: DN1 T cells; type: cell-based, mouse; settings: screen of 6 common adjuvants, CD69 on DN1 T cells
Method: 24 h later, the percentage of DN1 T cells expressing CD69 was determined by FACS. Data are representative of two experiments.

[2] = system: lymphocytes from MLN of Mtb-infected mice; experiment: Recall response to Mtb lipids in Mtb-infected hCD1Tg mice (IFN-γ ELISPOT); type: cell-based

Substance | enhancement of a suboptimal dose of MA-MC [1] | T cell responses to Mtb lipid [2]
monophosphoryl lipid A [MPLA] | top three candidates | –
cyclic-di-GMP | top three candidates | –
Sulfoglycolipid [SGL] | – | readily detected
Glucose monomycolate [GMM] | – | readily detected
